Data set [1] has as its system PKB kinases. Description: Association of PKB kinases with sucrose-loaded lipid vesicles containing inositol phospholipids. It is filed as binding, sheep. The method, then:
To assay association of PKB and PKB kinases with lipid vesicles and the effects of different lipids on the phosphorylation of PKB, the lipid vesicles were prepared by: sonicating dry lipid films into 0.2 M sucose; 20 mM KCl; 20 mM HEPES, pH 7.4 30° C.; 0.01% azide (to give 200 μM phosphatidylcholine, 150 μM phosphatidylserine, 20 μM phosphatidylethanolamine, 10 μM spingomylin plus the indicated concentrations of inositol lipids final in the assay. These were mixed with the relevant kinases in an assay buffer containing 1 mgml^−1 BSA; 0.12 M NaCl; 1 mM EGTA; 0.2 mM calcium; 1.5 mM MgCl2; 1 mM DTT; 0.01% azide; 5 mM KCl; 20 mM HEPES, pH 7.4, 30° C. (approx. 50 nM free calcium, all final concentrations in assay) with or without [γ^32P]-ATP (1 μM final concentration) and (EE)-PKB (2.5 μM final concentration). If the assays were to estimate associated of the kinases with the lipid vesicles then after 4 mins at 30° C. the assays were centrifuged (airfuge (Beckman) maximum speed for 30 mins). Aliquots of the supernatents were removed for assays or immunoblotting. […] Phosphorylation of PKB(s) were quantitated as described above. […]
Under the same assay conditions used for the PKB phosphorylation studies, we investigated the association of both the PKB kinases and PKB itself (FIG. 2C) with the lipid vesicles in these assays. […] Phosphorylation of PKB(s) was quantitated as described herein.

The target in the next data set is PKB kinases A-D. Description: PtdIns lipid-dependent phosphorylation and activation of PKB by purified PKB kinases (lipid vesicle assay). The note with it: mixed lipid vesicles, (EE)-PKB 2.5 μM, [γ32P]-ATP; FIG. 2A/2B. The data set is classed as biochemical, sheep. The method, then: Assays were run in 2 stages. The first stage was run with mixed lipid vesicles either with or without D-D-S/A-PtdIns(3,4,5)P3 (final concentration 5 μM) and in the presence or absence of PKB kinase A (6 nM), wild-type (EE)-PKB (2.5 μM) or T308A/S473A-(EE)-PKB) and [γ^32P]-ATP (50 μM). The assays were stopped and PKB proteins were immunoprecipitated with α(EE)-beads, washed then incubated with [γ^32P]-ATP (10 μM) and myelin basic protein (MBP; 7 μM) to determine the activity of the immobilized PKB. The results are from a single experiment and are represented as means±SE(n=3-5); four further experiments gave similar results. PKB kinases B, C and D gave very similar results.
Assays contained; a constant concentration of mixed lipid vesicles containing the indicated concentrations of inositol phospholipids, (EE)-PKB (2.5 μM), PKB kinase A (5 nM) and [γ^32P]-ATP (1 μM, total volume 12 μl). The data shown are pooled from 12 separate experiments and are means (n=3-6, their average se was 6%).
To assay association of PKB and PKB kinases with lipid vesicles and the effects of different lipids on the phosphorylation of PKB, the lipid vesicles were prepared by: sonicating dry lipid films into 0.2 M sucose; 20 mM KCl; 20 mM HEPES, pH 7.4 30° C.; 0.01% azide (to give 200 μM phosphatidylcholine, 150 μM phosphatidylserine, 20 μM phosphatidylethanolamine, 10 μM spingomylin plus the indicated concentrations of inositol lipids final in the assay. These were mixed with the relevant kinases in an assay buffer containing 1 mgml^−1 BSA; 0.12 M NaCl; 1 mM EGTA; 0.2 mM calcium; 1.5 mM MgCl2; 1 mM DTT; 0.01% azide; 5 mM KCl; 20 mM HEPES, pH 7.4, 30° C. (approx. 50 nM free calcium, all final concentrations in assay) with or without [γ^32P]-ATP (1 μM final concentration) and (EE)-PKB (2.5 μM final concentration). If the assays were to estimate associated of the kinases with the lipid vesicles then after 4 mins at 30° C. the assays were centrifuged (airfuge (Beckman) maximum speed for 30 mins). Aliquots of the supernatents were removed for assays or immunoblotting. The pellets were rinsed rapidly with assay buffer, recentrifuged and dissolved in SDS-sample buffer. Phosphorylation of PKB(s) were quantitated as described above. […]

Data set [2] addresses (EE)-PKB, EE-tagged protein kinase B purified from SF9 cells (UniProt P31749).
Data set [3] concerns PKB kinases. Description: Phosphorylation of a water-soluble 30-mer peptide based on the PKB sequence around Thr308 by PKB kinases. The note with it: not shown. The data set is classed as biochemical, sheep.
Data set [4] deals with (EE)-PKB, EE-tagged protein kinase B purified from SF9 cells, P31749.
Sequence of (EE)-PKB, EE-tagged protein kinase B purified from SF9 cells, P31749 (P31749 whole entry, looked up): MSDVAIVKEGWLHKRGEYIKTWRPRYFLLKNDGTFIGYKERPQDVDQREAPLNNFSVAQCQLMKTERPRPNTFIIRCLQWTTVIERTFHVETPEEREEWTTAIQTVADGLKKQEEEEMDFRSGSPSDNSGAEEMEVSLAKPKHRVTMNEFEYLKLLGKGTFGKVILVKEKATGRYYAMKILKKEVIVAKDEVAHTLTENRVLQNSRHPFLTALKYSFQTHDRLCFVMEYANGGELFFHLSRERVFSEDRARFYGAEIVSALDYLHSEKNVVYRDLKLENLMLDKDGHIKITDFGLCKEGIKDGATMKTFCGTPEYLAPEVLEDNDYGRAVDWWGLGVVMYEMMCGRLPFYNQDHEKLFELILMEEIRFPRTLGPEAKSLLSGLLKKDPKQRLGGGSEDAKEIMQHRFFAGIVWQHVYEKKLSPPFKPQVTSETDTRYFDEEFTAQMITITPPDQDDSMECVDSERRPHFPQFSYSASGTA

Entries after “also recorded” stand apart in the source; their conditions may differ.

As to `CCCCCCCCCCCCCCCC(=O)OC[C@H](COP(=O)(O)O[C@H]1[C@H](O)[C@@H](O)[C@H](OP(=O)(O)O)[C@@H](OP(=O)(O)O)[C@H]1O)OC(=O)CCCCCCCCCCCCCCC` [D-D-P/P-PtdIns(3,4)P2], in the data set on PKB kinases [1] (4 mins at 30° C., vesicles pelleted by centrifugation), the “association of PKB kinases with lipid vesicles containing the lipid” value is “associated with the lipid vesicles”.

`CCCCC/C=C\C/C=C\C/C=C\C/C=C\CCCC(=O)OC(COC(=O)CCCCCCCCCCCCCCCCC)COP(=O)(O)OC1C(O)C(OP(=O)(O)O)C(OP(=O)(O)O)C(OP(=O)(O)O)C1O` [D-D-S/A-PtdIns(3,4,5)P3, (1-stearoyl, 2-arachidonyl) snphosphatidyl D-myo-inositol (3,4,5)-trisphosphate]: the “molar percentage of the lipid in vesicles at which PKB kinases associated” value in the data set on PKB kinases [1] (very low molar percentages) is 0.003%. In addition, the “PKB kinase phosphorylation/activation of PKB in the presence of the lipid” value (from here on “PKB kinase phosphorylation/activation”) on PKB kinases A-D is “phosphorylate and activate; also recorded: equally effectively activated”.

For the molecule `CCCCC/C=C\C/C=C\C/C=C\C/C=C\CCCC(=O)OC(COC(=O)CCCCCCCCCCCCCCCCC)COP(=O)(O)OC1C(O)C(OP(=O)(O)O)C(OP(=O)(O)O)C(OP(=O)(O)O)C1O` [D-L-S/A-PtdIns(3,4,5)P3, (2-arachidonyl, 3-stearoyl) sn-phosphatidyl D-myoinositol(3,4,5)-trisphosphate], the “PKB kinase phosphorylation/activation” value at PKB kinases A-D is on record as “equally effectively activated”.

Consider “PKB kinase A purified from sheep brain cytosol”, for which the “phosphorylation and activation of PKB (activation judged by myelin basic protein phosphorylation)” value in data set [2] was “All four activities phosphorylate and activate (as judged by mylein basic protein (MBP) phosphorylation) PKB in the presence of the biological stereoisomers of PtdIns(3,4,5)P3 or PtdIns(3,4)P2”. “phosphatidylinositol4,5-bisphosphate [PtdIns(4,5)P2]”: the “PKB kinase phosphorylation/activation” value at PKB kinases A-D was “inactive against PKB”. In the case of “phosphatidylinositol-3,4,5-triphosphate [PtdIns(3,4,5)P3]”, the “effect of the lipid on phosphorylation of 30-mer PKB Thr308 peptide” value in the data set on PKB kinases [3] is “dramatically inhibited”. Regarding “phosphatidylinositol-3,4-bisphosphate [PtdIns(3,4)P2]”, the “PKB kinase phosphorylation/activation” value on PKB kinases A-D is “phosphorylate and activate”. The “effect of the lipid on phosphorylation of 30-mer PKB Thr308 peptide” value in the data set with PKB kinases [3] is given as “dramatically inhibited”.

B1: (EE)-II, N-terminally EE-tagged 55 kd PKB kinase (complete ORF of FIG. 3) expressed in cos-7 cells (protein)
chain: MARTTSQLYDAVPIQSSVVLCSCPSPSMVRSQTESSTPPGIPGGSRQGPAMDGTAAEPRPGAGSLQHAQPPPQPRKKRPEDFKFGKILGEGSFSTVVLARELATSREYAIKILEKRHIIKENKVPYVTRERDVMSRLDHPFFVKLYFTFQDDEKLYFGLSYAKNGELLKYIRKIGSFDETCTRFYTAEIVSALEYLHGKGIIHRDLKPENILLNEDMHIQITDFGTAKVLSPESKQARANSFVGTAQYVSPELLTEKSACKSSDLWALGCIIYQLVAGLPPFRAGNEYLIFQKIIKLEYDFPEKFFPKARDLVEKLLVLDATKRLGCEEMEGYGPLKAHPFFESVTWENLHQQTPPKLTAYLPAMSEDDEDCYGNYDNLLSQFGCMQVSSSSSSHSLSASDTGLPQRSGSNIEQYIHDLDSNSFELDLQFSEDEKRLLLEKQAGGNPWHQFVENNLILKMGPVDKRKGLFARRRQLLLTEGPHLYYVDPVNKVLKGEIPWSQELRPEAKNFKTFFVHTPNRTYYLMDPSGNAHKWCRKIQEVWRQRYQSHPDAAVQ
For B1, the “PKB kinase activity ([32P] in PKB, autoradiogram)” value in data set [4] is on record as “The protein with the intact protein kinase domain phosphorylated PKB in a PtdIns(3,4,5)P3-sensitive manner”.

(Values after patent US6682920B1, “Compositions and methods for identifying PKB kinase inhibitors” (Onyx Pharmaceuticals, Inc., priority 1997, dated 2004).)
